Measurements from patent US20230150970A1, “AMINOPYRIMIDINE DERIVATIVES AND THEIR USE AS ARYL HYDROCARBON RECEPTOR MODULATORS” (DONG-A ST CO., LTD., priority 2020, published 2023).

Each molecule was assayed against T1, AhR (Homo sapiens, UniProt P35869) (assay: In Vitro Assay 1: XRE-luciferase reporter assay, antagonism in human cell line (HepG2)). Details: Assay 1: AhR-Luc Human Antagonism (IC50, nM), unmarked values: kynurenine 200 μM, 6 hours.
T1 sequence (P35869 11-848): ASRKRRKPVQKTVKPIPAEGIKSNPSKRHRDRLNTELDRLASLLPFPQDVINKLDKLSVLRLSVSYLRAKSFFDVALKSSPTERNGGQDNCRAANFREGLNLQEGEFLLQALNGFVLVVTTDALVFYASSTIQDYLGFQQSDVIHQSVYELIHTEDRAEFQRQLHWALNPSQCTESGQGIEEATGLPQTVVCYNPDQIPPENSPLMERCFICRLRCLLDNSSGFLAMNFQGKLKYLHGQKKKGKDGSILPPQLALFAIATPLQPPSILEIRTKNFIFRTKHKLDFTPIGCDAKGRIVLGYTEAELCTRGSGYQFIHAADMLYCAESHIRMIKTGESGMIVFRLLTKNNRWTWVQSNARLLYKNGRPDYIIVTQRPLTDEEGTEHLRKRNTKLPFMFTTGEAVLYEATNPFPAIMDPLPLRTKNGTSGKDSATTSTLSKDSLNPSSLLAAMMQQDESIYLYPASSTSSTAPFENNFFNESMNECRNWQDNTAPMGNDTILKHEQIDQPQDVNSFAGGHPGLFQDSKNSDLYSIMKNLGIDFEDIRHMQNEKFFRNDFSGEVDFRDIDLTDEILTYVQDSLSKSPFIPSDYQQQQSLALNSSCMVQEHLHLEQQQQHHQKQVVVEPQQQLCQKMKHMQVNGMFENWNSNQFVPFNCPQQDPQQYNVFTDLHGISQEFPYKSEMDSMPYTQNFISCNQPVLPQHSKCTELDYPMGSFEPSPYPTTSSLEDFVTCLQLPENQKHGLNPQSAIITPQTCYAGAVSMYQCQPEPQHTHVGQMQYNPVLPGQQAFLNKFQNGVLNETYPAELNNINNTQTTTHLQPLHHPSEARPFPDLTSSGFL

SMILES	IC50 [nM]
Cn1cc(-c2nc(-c3ccc(Cl)cc3)cc(N3CCN(S(C)(=O)=O)CC3)n2)cn1 [Example 321, 4-(4-chlorophenyl)-2-(1-methyl-1H-pyrazol-4-yl)-6-(4-(methylsulfonyl)piperazin-1-yl)pyrimidine]	100 to 1000
Oc1cccc(-c2nc(-c3ccc(Cl)cc3)cc(N3CC[C@H](O)C3)n2)c1 [Example 322, (S)-1-(6-(4-chlorophenyl)-2-(3-hydroxyphenyl)pyrimidin-4-yl)pyrrolidin-3-ol]	> 1000
O[C@H]1CCN(c2cc(-c3ccc(Cl)cc3)nc(-c3ccncc3)n2)C1 [Example 324, (S)-1-(6-(4-chlorophenyl)-2-(pyridin-4-yl)pyrimidin-4-yl)pyrrolidin-3-ol]	> 1000
CS(=O)(=O)C1CCN(c2cc(-c3ccc(Cl)cc3)nc(-c3cccnc3)n2)CC1 [Example 326, 4-(4-chlorophenyl)-6-(4-(methylsulfonyl)piperidin-1-yl)-2-(pyridin-3-yl)pyrimidine]	10 to 100
O=S(=O)(C1CC1)N1CCN(c2cc(-c3ccc(Cl)cc3)nc(-c3cccnc3)n2)CC1 [Example 328, 4-(4-chlorophenyl)-6-(4-(cyclopropylsulfonyl)piperazin-1-yl)-2-(pyridin-3-yl)pyrimidine]	10 to 100
O[C@H]1CCN(c2cc(-c3ccc(Cl)cc3)nc(-c3ccnnc3)n2)C1 [Example 329, (S)-1-(6-(4-chlorophenyl)-2-(pyridazin-4-yl)pyrimidin-4-yl)pyrrolidin-3-ol]	100 to 1000
OC1CCCN(c2cc(-c3ccc(Cl)cc3)nc(-c3cccnc3)n2)CC1 (stereo not shown) [Example 330, 1-(6-(4-chlorophenyl)-2-(pyridin-3-yl)pyrimidin-4-yl)azepan-4-ol]	10 to 100
Cn1nnc(-c2nc(-c3ccc(Cl)cc3)cc(N3CC[C@H](O)C3)n2)n1 [Example 332, (S)-1-(6-(4-chlorophenyl)-2-(2-methyl-2H-tetrazol-5-yl)pyrimidin-4-yl)pyrrolidin-3-ol]	> 1000
Cn1nnc(-c2nc(-c3ccc(C(F)(F)F)cc3)cc(N3CC[C@H](O)C3)n2)n1 [Example 333, (S)-1-(2-(2-methyl-2H-tetrazol-5-yl)-6-(4-(trifluoromethyl)phenyl)pyrimidin-4-yl)pyrrolidin-3-ol]	> 1000
Cn1nnc(-c2nc(-c3ccc(Cl)cc3)cc(N3CCN(S(C)(=O)=O)CC3)n2)n1 [Example 334, 4-(4-chlorophenyl)-2-(2-methyl-2H-tetrazol-5-yl)-6-(4-(methylsulfonyl)piperazin-1-yl)pyrimidine]	> 1000

Other lines, results leading:

IC50 [nM]	SMILES
10 to 100	OCC1CCN(c2cc(-c3ccc(F)nc3)nc(-c3cccnc3)n2)CC1 [Example 318, (1-(6-(6-fluoropyridin-3-yl)-2-(pyridin-3-yl)pyrimidin-4-yl)piperidin-4-yl)methanol]
10 to 100	OC1CN(c2cc(-c3ccc(Cl)cc3)nc(-c3cccnc3)n2)C1 [Example 319, 1-(6-(4-chlorophenyl)-2-(pyridin-3-yl)pyrimidin-4-yl)azetidin-3-ol]
10 to 100	OCC1CN(c2cc(-c3ccc(Cl)cc3)nc(-c3cccnc3)n2)C1 [Example 320, (1-(6-(4-chlorophenyl)-2-(pyridin-3-yl)pyrimidin-4-yl)azetidin-3-yl)methanol]
10 to 100	CS(=O)(=O)N1CCN(c2cc(-c3ccc(Cl)cc3)nc(-c3cncc(F)c3)n2)CC1 [Example 325, 4-(4-chlorophenyl)-2-(5-fluoropyridin-3-yl)-6-(4-(methylsulfonyl)piperazin-1-yl)pyrimidine]
< 10	CS(=O)(=O)N1CC2CC1CN2c1cc(-c2ccc(Cl)cc2)nc(-c2cccnc2)n1 (stereo not shown) [Example 331, 2-(6-(4-chlorophenyl)-2-(pyridin-3-yl)pyrimidin-4-yl)-5-(methylsulfonyl)-2,5-diazabicyclo[2.2.1]heptane]
< 10	O=S(=O)(CCF)N1CCN(c2cc(-c3ccc(Cl)cc3)nc(-c3cccnc3)n2)CC1 [Example 335, 4-(4-chlorophenyl)-6-(4-((2-fluoroethyl)sulfonyl)piperazin-1-yl)-2-(pyridin-3-yl)pyrimidine]
